Laboratory results reported in paper PMC10819888, “Benzimidazole-Based Derivatives as Apoptotic Antiproliferative Agents: Design, Synthesis, Docking, and Mechanistic Studies” (Molecules, 2024).

Columns and labels:
Test in all cases: NCI-60 one-dose assay
Format in all cases: cell-based
HOP-92 = settings: Homo sapiens, HOP-92 (Non-Small Cell Lung Cancer), read-out: Cell Inhibition Percent
Procedure: (§1) The final compounds were submitted to the National Cancer Institute, Bethesda, USA, for screening in vitro for anti-cancer. […] compounds, 4a–j, 5, and 6, were selected according to the Development Therapeutic Program (DTP) protocol. The selected compounds were evaluated for their in vitro cytotoxic activity against a panel of sixty cancer cell lines (NCI-60 cell line panel) derived from six cell lines panel of leukemia, nine cell lines of lung cancer, six cell lines of CNS cancer, seven cell lines of colon cancer, eight cell lines of melanoma, six cell lines of ovarian cancer, eight cell lines of renal cancer, two cell lines of prostate cancer, and eight cell lines of breast cancer, representing the full nine human systems as leukemia, melanoma, and cancers of the lung, colon, brain, breast, ovary, kidney, and prostate.
(§2) The selected compounds 4a–j, 5, and 6 were tested at a single concentration of 10 µM. The screening results for the selected compounds are illustrated in Table 1.
(§3) The NCI anti-cancer screening methodology has been described in detail elsewhere (http://www.dtp.nci.nih.gov, accessed on 20 February 2021). Following the Drug Evaluation Branch protocol, National Cancer Institute, Bethesda, USA, a primary anti-cancer assay was performed on approximately 60 human tumor cell line panels derived from nine neoplastic diseases.

BT-549 = settings: Homo sapiens, BT-549 (Breast Cancer), read-out: Cell Inhibition Percent
Procedure: as §1, §2, §3

CAKI-1 = settings: Homo sapiens, CAKI-1 (Renal Cancer), read-out: Cell Inhibition Percent
Procedure: as §1, §2, §3

CCRF-CEM = settings: Homo sapiens, CCRF-CEM (Leukemia), read-out: Cell Inhibition Percent
Procedure: as §1, §2, §3

HCC-2998 = settings: Homo sapiens, HCC-2998 (Colon Cancer), read-out: Cell Inhibition Percent
Procedure: as §1, §2, §3

K-562 = settings: Homo sapiens, K562, K-562 (Leukemia), read-out: Cell Inhibition Percent
Procedure: as §1, §2, §3

SK-OV-3 = settings: Homo sapiens, SK-OV-3 (ovarian cancer), read-out: Cell Inhibition Percent
Procedure: as §1, §2, §3

NCI/ADR-RES = settings: Homo sapiens, NCI/ADR-RES (ovarian cancer), read-out: Cell Inhibition Percent
Procedure: as §1, §2, §3

MDA-MB-468 = settings: Homo sapiens, MDA-MB-468 (Breast Cancer), read-out: Cell Inhibition Percent
Procedure: as §1, §2, §3

786-0 = settings: Homo sapiens, 786-0 (Renal Cancer), read-out: Cell Inhibition Percent
Procedure: as §1, §2, §3

UACC-257 = settings: Homo sapiens, UACC-257 (Melanoma), read-out: Cell Inhibition Percent
Procedure: as §1, §2, §3

NCI-H522 = settings: Homo sapiens, NCI-H522 (Non-Small Cell Lung Cancer), read-out: Cell Inhibition Percent
Procedure: as §1, §2, §3

SF-268 = settings: Homo sapiens, SF-268 (CNS cancer), read-out: Cell Inhibition Percent
Procedure: as §1, §2, §3

HS 578T = settings: Homo sapiens, HS 578T (Breast Cancer), read-out: Cell Inhibition Percent
Procedure: as §1, §2, §3

NCI-H460 = settings: Homo sapiens, NCI-H460 (Non-Small Cell Lung Cancer), read-out: Cell Inhibition Percent
Procedure: as §1, §2, §3

OVCAR-4 = settings: Homo sapiens, OVCAR-4 (ovarian cancer), read-out: Cell Inhibition Percent
Procedure: as §1, §2, §3

SN12C = settings: Homo sapiens, SN12C (Renal Cancer), read-out: Cell Inhibition Percent
Procedure: as §1, §2, §3

HT29 = settings: Homo sapiens, HT-29, HT29 (Colon Cancer), read-out: Cell Inhibition Percent
Procedure: as §1, §2, §3

ACHN = settings: Homo sapiens, ACHN (Renal Cancer), read-out: Cell Inhibition Percent
Procedure: as §1, §2, §3

KM12 = settings: Homo sapiens, KM12 (Colon Cancer), read-out: Cell Inhibition Percent
Procedure: as §1, §2, §3

HOP-62 = settings: Homo sapiens, HOP-62 (Non-Small Cell Lung Cancer), read-out: Cell Inhibition Percent
Procedure: as §1, §2, §3

SR = settings: Homo sapiens, SR (Leukemia), read-out: Cell Inhibition Percent
Procedure: as §1, §2, §3

SNB-19 = settings: Homo sapiens, SNB-19 (CNS cancer), read-out: Cell Inhibition Percent
Procedure: as §1, §2, §3

MOLT-4 = settings: Homo sapiens, MOLT-4 (Leukemia), read-out: Cell Inhibition Percent
Procedure: as §1, §2, §3

SW-620 = settings: Homo sapiens, SW-620 (Colon Cancer), read-out: Cell Inhibition Percent
Procedure: as §1, §2, §3

NCI-H226 = settings: Homo sapiens, NCI-H226 (Non-Small Cell Lung Cancer), read-out: Cell Inhibition Percent
Procedure: as §1, §2, §3

UACC-62 = settings: Homo sapiens, UACC-62 (Melanoma), read-out: Cell Inhibition Percent
Procedure: as §1, §2, §3

SK-MEL-28 = settings: Homo sapiens, SK-MEL-28 (Melanoma), read-out: Cell Inhibition Percent
Procedure: as §1, §2, §3

SF-539 = settings: Homo sapiens, SF-539 (CNS cancer), read-out: Cell Inhibition Percent
Procedure: as §1, §2, §3

TK-10 = settings: Homo sapiens, TK-10 (Renal Cancer), read-out: Cell Inhibition Percent
Procedure: as §1, §2, §3

DU-145 = settings: Homo sapiens, DU-145 (Prostate Cancer), read-out: Cell Inhibition Percent
Procedure: as §1, §2, §3

| Structure (SMILES) | inhibition at 10 µM (HOP-92) [%] | inhibition at 10 µM (BT-549) [%] | inhibition at 10 µM (CAKI-1) [%] | inhibition at 10 µM (CCRF-CEM) [%] | inhibition at 10 µM (HCC-2998) [%] | inhibition at 10 µM (K-562) [%] | inhibition at 10 µM (SK-OV-3) [%] | inhibition at 10 µM (NCI/ADR-RES) [%] | inhibition at 10 µM (MDA-MB-468) [%] | inhibition at 10 µM (786-0) [%] | inhibition at 10 µM (UACC-257) [%] | inhibition at 10 µM (NCI-H522) [%] | inhibition at 10 µM (SF-268) [%] | inhibition at 10 µM (HS 578T) [%] | inhibition at 10 µM (NCI-H460) [%] | inhibition at 10 µM (OVCAR-4) [%] | inhibition at 10 µM (SN12C) [%] | inhibition at 10 µM (HT29) [%] | inhibition at 10 µM (ACHN) [%] | inhibition at 10 µM (KM12) [%] | also measured |
| --- | --- | --- | --- | --- | --- | --- | --- | --- | --- | --- | --- | --- | --- | --- | --- | --- | --- | --- | --- | --- | --- |
| O=C(NN=Cc1ccc(Cl)cc1Cl)c1ccc2[nH]c(-c3ccc(Cl)cc3)nc2c1 [Compound 4f, N′-(2,4-Dichlorobenzylidene)-2-(4-chlorophenyl)-1H-benzimidazole-5-carbohydrazide] | 0 | 0 | 9.61 | 48.1 | 3.25 | 53.7 | 7.23 | 0 | 0 | 0 | 6.59 | 7.79 | 3.63 | 10.4 | 1.37 | 0 | 1.23 | 2.18 | 9.01 | 1.75 | inhibition at 10 µM (HOP-62): 5.89%; inhibition at 10 µM (SR): 54.6%; inhibition at 10 µM (SNB-19): 7.76%; inhibition at 10 µM (MOLT-4): 72.6%; inhibition at 10 µM (SW-620): 4.3%; inhibition at 10 µM (NCI-H226): 18.8%; inhibition at 10 µM (UACC-62): 0%; inhibition at 10 µM (SK-MEL-28): 0%; inhibition at 10 µM (SF-539): 5.73%; inhibition at 10 µM (TK-10): 0%; inhibition at 10 µM (DU-145): 0% |
| COc1ccc(C=NNC(=O)c2ccc3[nH]c(-c4ccc(Cl)cc4)nc3c2)cc1 [Compound 4g, N′-(4-Methoxybenzylidene)-2-(4-chlorophenyl)-1H-benzimidazole-5-carbohydrazide] | 64 | 43.1 | 39.5 | 34.7 | 48.9 | 68.1 | 27.7 | 26.4 | 75.8 | 96.8 | 45.6 | 17.4 | 80.1 | 67.7 | 94.1 | 131 | 93.8 | 78.1 | 78.1 | 82.7 | inhibition at 10 µM (HOP-62): 69.7%; inhibition at 10 µM (SR): 99.3%; inhibition at 10 µM (SNB-19): 75.8%; inhibition at 10 µM (MOLT-4): 31.8%; inhibition at 10 µM (SW-620): 75.6%; inhibition at 10 µM (NCI-H226): 26.2%; inhibition at 10 µM (UACC-62): 69.1%; inhibition at 10 µM (SK-MEL-28): 87.5%; inhibition at 10 µM (SF-539): 57.4%; inhibition at 10 µM (TK-10): 60.9%; inhibition at 10 µM (DU-145): 20.7% |
| COc1cc(/C=N/NC(=O)c2ccc3[nH]c(-c4ccc(Cl)cc4)nc3c2)cc(OC)c1OC [Compound 4h, N′-(3,4,5-Trimethoxybenzylidene)-2-(4-chlorophenyl)-1H-benzimidazole-5 carbohydrazide] | 28.3 | 29.3 | 24 | 63.4 | 20 | 67.3 | 12.2 | 0 | 0 | 48.8 | 45.6 | 21.7 | 20.3 | 51.7 | 17.2 | 0 | 31.5 | 60.1 | 32.3 | 38.2 | inhibition at 10 µM (HOP-62): 18.3%; inhibition at 10 µM (SR): 54.3%; inhibition at 10 µM (SNB-19): 29%; inhibition at 10 µM (MOLT-4): 58.5%; inhibition at 10 µM (SW-620): 21.3%; inhibition at 10 µM (NCI-H226): 24%; inhibition at 10 µM (UACC-62): 71.3%; inhibition at 10 µM (SK-MEL-28): 53.5%; inhibition at 10 µM (SF-539): 56.2%; inhibition at 10 µM (TK-10): 22.6%; inhibition at 10 µM (DU-145): 2.57% |
